# pEC50: −log10 of the molar value.
# Target: T1, hFXR (Homo sapiens, UniProt Q96RI1)
# T1 construct: expressed in transfected cells; host or cells: CV-1 cells
# T1 sequence (Q96RI1 1-486): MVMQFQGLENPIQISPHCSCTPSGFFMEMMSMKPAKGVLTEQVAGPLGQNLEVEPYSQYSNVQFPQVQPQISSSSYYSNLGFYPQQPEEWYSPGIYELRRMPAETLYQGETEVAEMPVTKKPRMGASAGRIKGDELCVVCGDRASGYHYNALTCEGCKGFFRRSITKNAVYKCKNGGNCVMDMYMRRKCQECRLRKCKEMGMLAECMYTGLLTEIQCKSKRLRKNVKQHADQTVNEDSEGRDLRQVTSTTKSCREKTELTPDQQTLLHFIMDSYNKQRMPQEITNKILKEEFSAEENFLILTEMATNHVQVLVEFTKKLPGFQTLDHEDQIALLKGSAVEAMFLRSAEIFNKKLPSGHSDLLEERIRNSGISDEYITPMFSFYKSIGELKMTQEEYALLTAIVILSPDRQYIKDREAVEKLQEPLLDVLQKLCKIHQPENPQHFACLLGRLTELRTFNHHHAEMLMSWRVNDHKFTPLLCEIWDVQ
# T1 sequence (P19793 1-462 partner): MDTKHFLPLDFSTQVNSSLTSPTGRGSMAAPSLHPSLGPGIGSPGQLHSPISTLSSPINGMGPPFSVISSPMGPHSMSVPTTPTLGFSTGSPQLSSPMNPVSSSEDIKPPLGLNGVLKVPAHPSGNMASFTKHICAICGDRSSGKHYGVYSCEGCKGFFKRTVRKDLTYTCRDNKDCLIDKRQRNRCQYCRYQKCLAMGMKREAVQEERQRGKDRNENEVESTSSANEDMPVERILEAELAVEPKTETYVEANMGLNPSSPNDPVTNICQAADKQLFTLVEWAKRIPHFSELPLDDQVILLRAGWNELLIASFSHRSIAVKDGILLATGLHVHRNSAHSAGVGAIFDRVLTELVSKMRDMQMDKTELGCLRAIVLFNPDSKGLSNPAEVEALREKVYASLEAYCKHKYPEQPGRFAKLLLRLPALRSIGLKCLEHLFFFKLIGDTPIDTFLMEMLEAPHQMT
# Assay: In Vitro FXR Assay (TK): TK-ECRE-luc reporter in transfected CV-1 cells
# Type: cell-based
# Conditions: 18 hrs incubation, luminescence
# Description: Example B-1: In Vitro FXR Assay (TK)
# CV-1 cells were seeded at a density of 2,000,000 cells in a T175 flask with DMEM+10% charcoal double-stripped FBS and incubated at 37° C. in 5% CO2 for 18 h (O/N).
# After 18 h of incubation, the medium in the T175 flask was changed with fresh DMEM+10% charcoal super-stripped serum. In a polypropylene tube, 2500 μL OptiMEM (Life Technologies, Cat #31985-062) was combined with expression plasmids for hFXR, hRXR, TK-ECRE-luc and pCMX-YFP. The tube was then briefly vortexed and incubated at room temperature for 5 minutes. Transfection reagent (X-tremeGENE HP from Roche, Cat #06 366 236 001) was added to the OptiMEM/plasmid mixture vortexed and incubated at room temperature for 20 minutes. Following incubation, the transfection reagent/DNA mixture complex was added to cells in the T175 flask and the cells were incubated at 37° C. in 5% CO2 for 18 h (O/N).
# Compounds were serially diluted in DMSO and added to transfected CV-1 cells. The cells were then incubated for 18 hrs. The next day cells were lysed and examined for luminescence.
row,SMILES,pEC50
1,"COc1ccc(C23CCC(CN(C(=O)C4CCC(OC(=O)N5CC(O)C5)CC4)c4cc(C5CCCN(C(C)C)C5)ccn4)(CC2)CC3)cc1C (stereo not drawn) [Compound 26.18, 4-((4-(1-Isopropylpiperidin-3-yl)pyridin-2-yl)((4-(4-methoxy-3-methylphenyl)bicyclo[2.2.2]octan-1-yl)methyl)carbamoyl)cyclohexyl trans-3-hydroxyazetidine-1-carboxylate]",5.00 to 6.00
2,"COc1ccc([C@H]2CC[C@H](CN(c3cc(-c4cc(C5CC5)no4)ccn3)C(=O)[C@H]3CC[C@H](OC(=O)N4CC(O)C4)CC3)CC2)cc1C [Compound 2.38, trans-4-((4-(3-Cyclopropylisoxazol-5-yl)pyridin-2-yl)((trans-4-(4-methoxy-3-methylphenyl)cyclohexyl)methyl)carbamoyl)cyclohexyl 3-hydroxyazetidine-1-carboxylate]",≥ 7.30
3,"COc1ccc(C23CCC(CN(c4cc(-c5cnn(C(C)C)c5)ccn4)C(=O)[C@H]4CC[C@H](OC(=O)N5CC(C(C)C)C5)CC4)(CC2)CC3)cc1C [Compound 23.12, 4-((4-(1-Isopropyl-1H-pyrazol-4-yl)pyridin-2-yl)((4-(4-methoxy-3-methylphenyl)bicyclo[2.2.2]oc-tan-1-yl)methyl)carbamoyl)cyclo-hexyl trans-3-isopropyl-azetidine-1-carboxylate]",≥ 7.30
4,COc1ccc([C@H]2CC[C@H](CN(c3cc(-c4cnn(C(C)C)c4)ccn3)C(=O)[C@H]3CC[C@H](OC(=O)NC4COC4)CC3)CC2)cc1C [Compound 2.51],≥ 7.30
5,"COc1ccc(C23CCC(CN(c4cc(-c5coc(C(C)C)n5)ccn4)C(=O)[C@H]4CC[C@H](OC(=O)N5CC(O)C5)CC4)(CC2)CC3)cc1C [Compound 4.23, 4-((4-(2-Isopropyloxazol-4-yl)pyridin-2-yl)((4-(4-methoxy-3-methylphenyl)bicyclo[2.2.2]octan-1-yl)methyl)carbamoyl) cyclohexyl 3-hydroxyazetidine-trans-1-carboxylate]",≥ 7.30
6,"COc1ccc(C23CCC(CN(c4cc(-c5cnn(C(C)C)c5)ncn4)C(=O)[C@H]4CC[C@H](OC(=O)N5CC(O)C5)CC4)(CC2)CC3)cc1C [Compound 23, 4-((6-(1-Isopropyl-1H-pyrazol-4-yl)pyrimidin-4-yl)((4-(4-methoxy-3-methylphenyl)bicyclo[2.2.2]octan-1-yl)methyl)carbamoyl)(trans-cyclohexyl) 3-hydroxyazetidine-1-carboxylate]",≥ 7.30
7,"COc1ccc(C23CCC(CN(c4cc(-c5cnn(C(C)C)c5)ccn4)C(=O)[C@H]4CC[C@H](OC(=O)NCCCCO)CC4)(CC2)CC3)cc1C [Compound 4.50, 4-((4-(1-Isopropyl-1H-pyrazol-4-yl)pyridin-2-yl) ((4-(4-methoxy-3-methylphenyl)bicyclo [2.2.2]octan-1-yl)methyl)carbamoyl)cyclohexyl(4-hydroxybutyl)trans-carbamate]",≥ 7.30
8,"COc1ccc(C23CCC(CN(c4cc(-c5cnn(C(C)C)c5)ccn4)C(=O)[C@H]4CC[C@H](OC(=O)N5CCN(C)CC5)CC4)(CC2)CC3)cc1C [Compound 4.15, 4-((4-(1-Isopropyl-1H-pyrazol-4-yl)pyridin-2-yl)((4-(4-methoxy-3-methylphenyl)bicyclo [2.2.2]octan-1-yl)methyl)carbamoyl)cyclohexyl 4-methylpiperazine-trans-1-carboxylate]",≥ 7.30
9,"Cn1ccc2nc([C@H]3CC[C@H](CN(c4cccc(-c5cnc(C6CC6)s5)c4)C(=O)[C@H]4CC[C@H](OC(=O)N5CC(O)C5)CC4)CC3)ccc21 [Compound 5.13, trans-4-((3-(2-Cyclopropylthiazol-5-yl)phenyl)(((trans)-4-(1-methyl-1H-pyrrolo[3,2-b]pyridin-5-yl)cyclohexyl)methyl)carbamoyl) cyclohexyl 3-hydroxyazetidine-1-carboxylate]",≥ 7.30
10,"COc1ccc([C@H]2CC[C@H](CN(c3cc(-c4ccc(N(C)C)nc4)ccn3)C(=O)[C@H]3CC[C@H](OC(=O)N4CC(O)C4)CC3)CC2)cc1C [Compound 3, trans-4-((6-(Dimethylamino)-[3,4′-bipyridine]-2′-yl)((trans-4-(4-methoxy-3-methylphenyl)cyclohexyl)methyl)carbamoyl)cyclohexyl 3-hydroxyazetidine-1-carboxylate]",≥ 7.30
11,"COc1ccc([C@H]2CC[C@H](CN(c3cc(-c4cc(C5CC5)on4)ccn3)C(=O)[C@H]3CC[C@H](OC(=O)N4CC(O)C4)CC3)CC2)cc1C [Compound 2.09, trans-4-((4-(5-Cyclopropylisoxazol-3-yl)pyridin-2-yl)((trans-4-(4-methoxy-3-methylphenyl)cyclohexyl)methyl)carbamoyl)cyclohexyl 3-hydroxyazetidine-1-carboxylate]",≥ 7.30
12,"COc1ccc(C23CCC(CN(c4cc(-c5cnn(C(C)C)c5)c(F)cn4)C(=O)[C@H]4CC[C@H](OC(=O)N5CC(CS(C)(=O)=O)C5)CC4)(CC2)CC3)cc1C [Compound 25.07, 4-((5-Fluoro-4-(1-isopropyl-1H-pyrazol-4-yl)pyridin-2-yl)((4-(4-methoxy-3-methylphenyl)bicyclo[2.2.2]octan-1-yl)methyl)carbamoyl)cyclohexyl trans-3-((methylsulfonyl)methyl)azetidine-1-carboxylate]",≥ 7.30

# More lines, now with the values ahead:
row,pEC50,SMILES
1,≥ 7.30,"COc1ccc([C@H]2CC[C@H](CN(c3cc(-c4cnn(C(C)C)c4)ccn3)C(=O)[C@H]3CC[C@H](OC(=O)N4CC(OCCO)C4)CC3)CC2)cc1C [Compound 2.11, trans-4-((4-(1-Isopropyl-1H-pyrazol-4-yl)pyridin-2-yl)(((trans)-4-(4-methoxy-3-methylphenyl)cyclohexyl)methyl)carbamoyl) cyclohexyl3-(2-hydroxyethoxy)azetidine-1-carboxylate]"
2,≥ 7.30,"COc1ccc(C23CCC(CN(c4cncc(-c5cnn(C6(C)CCC6)c5)n4)C(=O)[C@H]4CC[C@H](OC(=O)N5CC(O)C5)CC4)(CC2)CC3)cc1C [Compound 25.27, 4-(((4-(4-Methoxy-3-methylphenyl)bicyclo[2.2.2]octan-1-yl)methyl)(6-(1-(1-methylcyclobutyl)-1H-pyrazol-4-yl)pyrazin-2-yl)carbamoyl)cyclohexyl trans-3-hydroxyazetidine-1-carboxylate]"
3,≥ 7.30,"COc1ccc(C23CCC(CN(c4cc(-c5coc(C(C)C)n5)ccn4)C(=O)[C@H]4CC[C@H](OC(=O)NCCC(C)(C)O)CC4)(CC2)CC3)cc1C [Compound 23.06, 4-((4-(2-Isopropyloxazol-4-yl)pyridin-2-yl)((4-(4-methoxy-3-methylphenyl)bicyclo[2.2.2]octan-1-yl)methyl)carbamoyl)(trans-cyclohexyl)(3-hydroxy-3-methylbutyl)carbamate]"
4,≥ 7.30,"COc1ccc([C@H]2CC[C@H](CN(c3cccc(-c4cnn(C(C)C)c4)c3)C(=O)[C@H]3CC[C@H](OCCCO)CC3)CC2)cc1C [Compound 16, trans-4-(3-Hydroxypropoxy)-N-(3-(1-isopropyl-1H-pyrazol-4-yl)phenyl)-N-((trans-4-(4-methoxy-3-methylphenyl)cyclohexyl)methyl)cyclohexanecarboxamide]"
5,≥ 7.30,"COc1ccc(C23CCC(CN(c4cc(-c5cnn(C6(C)CCC6)c5)c(F)cn4)C(=O)[C@H]4CC[C@H](OC(=O)N5CC(O)C5)CC4)(CC2)CC3)cc1C [Compound 25.18, 4-((5-Fluoro-4-(1-(1-methylcyclobutyl)-1H-pyrazol-4-yl)pyridin-2-yl)((4-(4-methoxy-3-methylphenyl)bicyclo[2.2.2]octan-1-yl)methyl)carbamoyl)cyclohexyl trans-3-hydroxyazetidine-1-carboxylate]"
6,≥ 7.30,"CCc1nc(-c2ccnc(N(C[C@H]3CC[C@H](c4ccc(OC)c(C)c4)CC3)C(=O)[C@H]3CC[C@H](OC(=O)NCC(C)(C)O)CC3)c2)co1 [Compound 2.49, trans-4-((4-(2-Ethyloxazol-4-yl)pyridin-2-yl)((trans-4-(4-methoxy-3-methylphenyl)cyclohexyl)methyl)carbamoyl)cyclohexyl (2-hydroxy-2-methylpropyl)carbamate]"

# Source: patent publication US20220056019A1, “FARNESOID X RECEPTOR AGONISTS AND USES THEREOF” (Metacrine, Inc., priority 2018, published 2022)
